Values after ≈ are worked out from the molar mass of the structure shown.
What was measured:
[1] = system: Human hepatoma cell lines (HepG2); test: MTT cell viability assay; format: cell-based; conditions: for IC50: Homo sapiens, HepG2 cells, 48 h exposure; for inhibition against liver cancer cells compared to Compound S: versus Compound S
Source text: The MTT (3-(4, 5-dimethylthiazol-2-yl)-2,5-diphenyl tetrazolium bromide) cell viability assay is a colorimetric assay system, which measures the reduction of a tetrazolium component (MTT) into an insoluble blue/purple colored formazan product by succinate tetrazolium reductase in mitochondria of viable cells. The absorbance of the complex is read spectrophotometrically and is directly proportional to the number of live or viable cells. Formazan formation can therefore be used to assess and determine the survival rate of cells.
Human hepatoma cell lines (HepG2) were obtained from American Type Culture Collection (Rockville, Md., USA) and cultured in Minimum Essential Medium Alpha (Invitrogen/Gibco BRL, Grand Island, N.Y., USA) at 37° C. in 5% CO2 in culture media supplemented with 10% fetal bovine serum (FBS) (Invitrogen/Gibco BRL) and 100 U/ml streptomycin and penicillin (Invitrogen/Gibco BRL).
100 μL of HepG2 cells (1×10^4 cells per well) were seeded in 96 well plates and pre-incubated. After 24 h, the cells were exposed to various concentrations of Compounds 1-11, and the known compound 4-hydroxy-2,3-dimethoxy-6-methyl-5-(3,7,11-trimethyldodeca-2,6,10-trienyl)cyclohex-2-enone (Compound S) in a volume of 200 μL for 48 h. 20 μL of MTT reagent (5 mg/mL) was added to each well and then incubated in 5% CO2 at 37° C. for 4 h. The media was replaced with 200 μL of DMSO to dissolve the MTT tetrazolium crystal. Absorbance was measured at 570 nm using a microplate reader.

Human HCC Mahlavu cells = test: Efficacy test on liver cancer xenograft model; format: in vivo, nude mice
Procedure: […] nude mice (National Laboratory Animal Center) of four to six weeks old were used and maintained in laminar flow cabinets under pathogen-free condition. Human HCC Mahlavu cells (1×10^6 cells) carrying luciferase gene were re-suspended in 20 μL of PBS containing 50% matrigel (BD Biosciences, MA) and injected into the left lateral liver lobe of athymic nude mice (National Laboratory Animal Center) with 27-gauge needle by sterile techniques (Lu et al., 2007). For bioluminescence imaging, the animals were injected with the luciferase substrate D-luciferin at a dose of 150 mg/kg in 0.2 mL sterile isotonic saline.
Tumor growth and metastatic status was monitored using the Xenogen […] (IVIS) imaging system every two weeks. All images were obtained after intraperitoneal injection of luciferin (100 mg/kg body weight; Synchem, Elk Grove Village, Ill., United States). […] Image analysis and bioluminescence quantification were performed using Living Image software (Caliper Life Sciences, Hopkinton, Mass., United States). […] The body weight was measured twice weekly.
The tumor-bearing mice were treated with vehicle (olive oil) or Compound 1 at 120 mg/kg by oral gavage twice per day and 5 days per week for 4 weeks. The tumor volume was measured twice weekly. ***P<0.005 compared to vehicle control. […]

SMILES	IC50 [1] [µg/mL]	inhibition against liver cancer cells compared to Compound S [1]	tumor size (Human HCC Mahlavu cells; 120 mg/kg oral gavage twice per day, 5 days per week for 4 weeks, P<0.005 compared to vehicle control)	decrease of tumor mass compared with control (Human HCC Mahlavu cells; 120 mg/kg oral gavage, at the end of week 12)
COC1=C(NCCO)[C@@H](O)[C@@H](C/C=C(\C)CC/C=C(\C)CCC=C(C)C)[C@H](C)C1=O [Compound 7]	1.95 (≈ 4.65 µM)			
COC1=C(NCCCN)[C@@H](O)[C@@H](C/C=C(\C)CC/C=C(\C)CCC=C(C)C)[C@H](C)C1=O [Compound 5]	0.87 (≈ 2.01 µM)	much better unexpected inhibition		
COC1=C(NCCc2c[nH]c3ccccc23)[C@@H](O)[C@@H](C/C=C(\C)CC/C=C(\C)CCC=C(C)C)[C@H](C)C1=O [Compound 11]	2.29 (≈ 4.41 µM)			
COC1=C(NCc2cccs2)[C@@H](O)[C@@H](C/C=C(\C)CC/C=C(\C)CCC=C(C)C)[C@H](C)C1=O [Compound 10]	0.91 (≈ 1.93 µM)	much better unexpected inhibition		

Continued, in another order:

IC50 [1] [µg/mL]	SMILES	inhibition against liver cancer cells compared to Compound S [1]	tumor size (Human HCC Mahlavu cells; 120 mg/kg oral gavage twice per day, 5 days per week for 4 weeks, P<0.005 compared to vehicle control)	decrease of tumor mass compared with control (Human HCC Mahlavu cells; 120 mg/kg oral gavage, at the end of week 12)
0.13 (≈ 0.346 µM)	COC1=C(N)[C@@H](O)[C@@H](C/C=C(\C)CC/C=C(\C)CCC=C(C)C)[C@H](C)C1=O [Compound 1, (4S,5S,6S)-3-amino-4-hydroxy-2-methoxy-6-methyl-5-((2E,6E)-3,7,11-trimethyldodeca-2,6,10-trien-1-yl)cyclohex-2-enone]	much better unexpected inhibition	decrease of the tumor size	at least 4 folds
2.4 (≈ 6.14 µM)	COC1=C(OC)C(O)C(CC=C(C)CCC=C(C)CCC=C(C)C)C(C)C1=O (stereo not shown) [Compound S, 4-hydroxy-2,3-dimethoxy-6-methyl-5-(3,7,11-trimethyldodeca-2,6,10-trienyl)cyclohex-2-enone, reference compound]			
0.18 (≈ 0.446 µM)	COC1=C(N(C)C)[C@@H](O)[C@@H](C/C=C(\C)CC/C=C(\C)CCC=C(C)C)[C@H](C)C1=O [Compound 4]	much better unexpected inhibition		

Source: US10858307B2, “Compositions and methods for treating liver cancer” (Golden Biotechnology Corporation, priority 2016, dated 2020)
